≈ marks a conversion by molar mass, not a printed value.
Tested on: M. tuberculosis INH resistant (Spec. 210)
Assay: In vitro antitubercular MIC
Format: cell-based
Settings: Mycobacterium tuberculosis, read-out: Minimal inhibitory concentration

Structure (SMILES)	MIC
Fc1ccc(-n2nnnc2NCc2ccco2)cc1 [Compound 1, 1-(4-fluorophenyl)-N-(furan-2-ylmethyl)-1H-tetrazol-5-amine]	256 mg/L (≈ 987 µM)
Cc1ccc(Cl)cc1-n1nnnc1NCc1ccco1 [Compound 2, 1-(5-chloro-2-methylphenyl)-N-(furan-2-ylmethyl)-1H-tetrazol-5-amine]	512 mg/L (≈ 1770 µM)
Ic1ccc(-n2nnnc2NCc2ccco2)cc1 [Compound 3, N-(furan-2-ylmethyl)-1-(4-iodophenyl)-1H-tetrazol-5-amine]	512 mg/L (≈ 1390 µM)
Clc1cccc(-n2nnnc2NCc2ccco2)c1 [Compound 4, 1-(3-chlorophenyl)-N-(furan-2-ylmethyl)-1H-tetrazol-5-amine]	256 mg/L (≈ 929 µM)
Clc1ccc(-n2nnnc2NCc2ccco2)cc1Cl [Compound 5, 1-(3,4-dichlorophenyl)-N-(furan-2-ylmethyl)-1H-tetrazol-5-amine]	> 512 mg/L
Fc1ccccc1-n1nnnc1NCc1ccco1 [Compound 6, 1-(2-fluorophenyl)-N-(furan-2-ylmethyl)-1H-tetrazol-5-amine]	256 mg/L (≈ 987 µM)
Brc1cccc(-n2nnnc2NCc2ccco2)c1 [Compound 7, 1-(3-bromophenyl)-N-(furan-2-ylmethyl)-1H-tetrazol-5-amine]	256 mg/L (≈ 800 µM)
Clc1ccc(-n2nnnc2NCc2ccco2)cc1 [Compound 8, 1-(4-chlorophenyl)-N-(furan-2-ylmethyl)-1H-tetrazol-5-amine]	256 mg/L (≈ 929 µM)
Fc1cccc(-n2nnnc2NCc2ccco2)c1 [Compound 9, 1-(3-fluorophenyl)-N-(furan-2-ylmethyl)-1H-tetrazol-5-amine]	256 mg/L (≈ 987 µM)
Brc1ccc(-n2nnnc2NCc2ccco2)cc1 [Compound 10, 1-(4-bromophenyl)-N-(furan-2-ylmethyl)-1H-tetrazol-5-amine]	512 mg/L (≈ 1600 µM)
Clc1ccccc1-n1nnnc1NCc1ccco1 [Compound 11, 1-(2-chlorophenyl)-N-(furan-2-ylmethyl)-1H-tetrazol-5-amine]	256 mg/L (≈ 929 µM)
Brc1ccccc1-n1nnnc1NCc1ccco1 [Compound 12, 1-(2-bromophenyl)-N-(furan-2-ylmethyl)-1H-tetrazol-5-amine]	256 mg/L (≈ 800 µM)
NNC(=O)c1ccncc1 [INH, isoniazid, reference compound]	2 mg/L (≈ 14.6 µM)
